# How the values were obtained:
# [1] = test system: memory loss associated with sleep deprivation; assay: Treatment of memory loss associated with sleep deprivation in a subject; assay type: in vivo; settings: nasal spray, effective dose 3× daily in each naris
# Excerpt: A subject is admitted to a clinic for a memory loss associated with sleep deprivation. The subject is prescribed a roflumilast composition in a nasal spray device described herein. The subject administers the nasal spray in an effective dose 3× daily in each naris. The nasal spray is characterized by a spray containing a D50 of about 15 μm to about 24 μm, a D90 of from about 30 μm to about […] and where less than about 3% of the droplets in the plume of a spray have a size of less than about 10 μm.
# [2] = cited from earlier work
compound,measurement,setting,value
O=C(Nc1c(Cl)cncc1Cl)c1ccc(OC(F)F)c(OCC2CC2)c1 [roflumilast],memory retention after administration,[1],improved memory retention
Cn1c(=O)c2[nH]cnc2n(C)c1=O [theophylline],solubility of theophylline in ethanol,[2]; in ethanol,14 to 15 mg/mL
same,solubility of theophylline in water,[2]; in water,7 to 8 mg/mL
